Measurements as given in patent US8828991B2, “Azacyclyl-substituted arylthienopyrimidinones, process for their preparation and their use as medicaments” (Sanofi, priority 2006, dated 2014).

Target: T1, human MCH receptor (Homo sapiens, UniProt Q99705)
T1 construct: expressed in transfected cells
Test: calcium immobilization assay: functional IC50 of MCH1R antagonists (cellular calcium flux, FLIPR)
Type: cell-based
Conditions: recombinant HEK293 cell line expressing the human MCH receptor, calcium flux after addition of agonist (MCH)
Excerpt: Influence on the MCH receptor in vitro; determination of functional IC50 values of MCH1R antagonists
Cloning of the cDNA for the human MCH receptor, preparation of a recombinant HEK293 cell line which expresses the human MCH receptor, and functional measurements with the recombinant cell line took place in analogy to the description by Audinot et al. (J. Biol. Chem. 276, 13554-13562, 2001). A difference from the reference was, however, the use of the plasmid pEAK8 from EDGE Biosystems (JSA) for the construction of the expression vector. The host used for the transfection was a transformed HEK cell line named “PEAK Stable Cells” (likewise from EDGE Biosystems). Functional measurements of the cellular calcium flux after addition of agonist (MCH) in the presence of ligand of the invention took place with the aid of the FLIPR apparatus from Molecular Devices (USA), using protocols of the apparatus manufacturer. The compounds of the invention show a significant inhibition (>30%) of the signal induced by the agonist at a concentration of 100 μM, preferably at 10 μM, particularly preferably at 1 μM, very particularly preferably at 100 nM and even more particularly preferably at 10 nM.

T1 sequence (Q99705 whole entry): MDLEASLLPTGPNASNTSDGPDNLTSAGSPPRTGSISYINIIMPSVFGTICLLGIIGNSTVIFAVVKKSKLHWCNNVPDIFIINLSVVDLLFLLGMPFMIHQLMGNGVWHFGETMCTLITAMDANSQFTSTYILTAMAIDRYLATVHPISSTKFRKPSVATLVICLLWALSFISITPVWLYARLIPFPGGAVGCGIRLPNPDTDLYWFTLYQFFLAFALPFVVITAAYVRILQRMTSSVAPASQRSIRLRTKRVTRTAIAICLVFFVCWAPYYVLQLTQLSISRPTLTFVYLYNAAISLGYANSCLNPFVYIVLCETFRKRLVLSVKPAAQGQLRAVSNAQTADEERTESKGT

| IC50 [nM] | Compound |
| --- | --- |
| 340 | CCCOCc1cc2ncn(-c3ccc(N4CCC(N(C)C)C4)cc3)c(=O)c2s1 (stereo not drawn) [Example 95, 3-[4-(3-Dimethylamino-pyrrolidin-1-yl)-phenyl]-6-propoxymethyl-3H-thieno[3,2-d]pyrimidin-4-one] |
| 600 | CN(C)C1CCN(c2ccc(-n3cnc4cc(COCC5CC5)sc4c3=O)cc2)C1 (stereo not drawn) [Example 96, 6-Cyclopropylmethoxymethyl-3-[4-(3-dimethylamino-pyrrolidin-1-yl)-phenyl]-3H-thieno[3,2-d]pyrimidin-4-one] |
| 440 | CC(O)C#Cc1cc2ncn(-c3ccc(N4CC[C@@H](N(C)CCS(C)(=O)=O)C4)cc3)c(=O)c2s1 (stereo partly drawn) [Example 38] |
| 110 | CN(C)[C@@H]1CCN(c2ccc(-n3cnc4cc(C#CC5CC5)sc4c3=O)cc2)C1 [Example 45, 6-Cyclopropylethynyl-3-[4-((R)-3-dimethylamino-pyrrolidin-1-yl)-phenyl]-3H-thieno[3,2-d]pyrimidin-4-one] |
| 2090 | COC(C)(C)CCc1cc2ncn(-c3ccc(N4CC[C@@H](N(C)C)C4)cc3)c(=O)c2s1 [Example 57] |
| 920 | COCC#Cc1cc2ncn(-c3ccc(N4CC[C@@H](N(C)CCS(C)(=O)=O)C4)cc3)c(=O)c2s1 [Example 39] |
| 320 | CN(CCS(C)(=O)=O)[C@@H]1CCN(c2ccc(-n3cnc4cc(CCC5CC5)sc4c3=O)cc2)C1 [Example 50, 6-(2-Cyclopropylethyl)-3-(4-{(R)-3-[(2-methanesulfonylethyl)methylamino]pyrrolidin-1-yl}phenyl)-3H-thieno[3,2-d]pyrimidin-4-one] |
| 660 | CCC(O)C#Cc1cc2ncn(-c3ccc(N4CC[C@@H](N(C)CCS(C)(=O)=O)C4)cc3)c(=O)c2s1 (stereo partly drawn) [Example 40] |

The remaining lines, values behind:

| Compound | IC50 [nM] |
| --- | --- |
| COCCCc1cc2ncn(-c3ccc(N4CC[C@@H](N5CCCC5)C4)c(F)c3)c(=O)c2s1 [Example 61] | 560 |
| CS(=O)(=O)CCN1CCCN(c2ccc(-n3cnc4cc(C#CC5CC5)sc4c3=O)cc2)CC1 [Example 44, 6-Cyclopropylethynyl-3-{4-[4-(2-methanesulfonyl-ethyl)-[1,4]diazepan-1-yl]-phenyl}-3H-thieno[3,2-d]pyrimidin-4-one] | 740 |
| CC(O)C#Cc1cc2ncn(-c3ccc(N4CC[C@@H](N(C)C)C4)c(F)c3)c(=O)c2s1 (stereo partly drawn) [Example 49] | 180 |
| CN1CCCN(c2ccc(-n3cnc4cc(C(O)C5CCCC5)sc4c3=O)cc2)CC1 (stereo not drawn) [Example 77, 6-(Cyclopentylhydroxymethyl)-3-[4-(4-methyl[1,4]diazepan-1-yl)phenyl]-3H-thieno[3,2-d]-pyrimidin-4-one] | 9030 |
| COCC#Cc1cc2ncn(-c3ccc(N4CC[C@@H](N(C)C)C4)c(F)c3)c(=O)c2s1 [Example 47] | 230 |
| CN(C)[C@@H]1CCN(c2ccc(-n3cnc4cc(N5CCCCC5)sc4c3=O)cc2)C1 [Example 65, 3-[4-((R)-3-Dimethylaminopyrrolidin-1-yl)phenyl]-6-piperidin-1-yl-3H-thieno[3,2-d]pyrimidin-4-one] | 1330 |
| CC(O)C#Cc1cc2ncn(-c3ccc(N4CC[C@@H](N(C)C)C4)cc3)c(=O)c2s1 (stereo partly drawn) [Example 30, 3-[4-((R)-3-Dimethylaminopyrrolidin-1-yl)phenyl]-6-(3-hydroxybut-1-ynyl)-3H-thieno[3,2-d]pyrimidin-4-one] | 380 |
| CC(C)C(O)C#Cc1cc2ncn(-c3ccc(N4CCCN(C)CC4)cc3)c(=O)c2s1 (stereo not drawn) [Example 26] | 1100 |
| C[C@@H](O)C#Cc1cc2ncn(-c3ccc(N4CC[C@@H](N5CCCC5)C4)c(F)c3)c(=O)c2s1 [Example 42] | 180 |
| CN1CCCN(c2ccc(-n3cnc4cc(C(=O)C5CCCC5)sc4c3=O)cc2)CC1 [Example 76, 6-Cyclopentanecarbonyl-3-[4-(4-methyl[1,4]diazepan-1-yl)phenyl]-3H-thieno[3,2-d]pyrimidin-4-one] | 8740 |
| CN(C)[C@@H]1CCN(c2ccc(-n3cnc4cc(C#CC5(O)CCCC5)sc4c3=O)cc2)C1 [Example 32] | 1350 |
| CCC(O)CCc1cc2ncn(-c3ccc(N4CC[C@@H](N5CCCC5)C4)c(F)c3)c(=O)c2s1 (stereo partly drawn) [Example 63] | 240 |
| CCO/C=C\c1cc2ncn(-c3ccc(N4CCCN(C)CC4)cc3)c(=O)c2s1 [Example 74, 6-((Z)-2-Ethoxyvinyl)-3-[4-(4-methyl[1,4]diazepan-1-yl)phenyl]-3H-thieno[3,2-d]pyrimidin-4-one] | 2950 |
